Results from patent publication US4062948A, “Dihydromocimycin antibiotics” (Gist-Brocades N.V., priority 1970, dated 1977).
Converted amounts (≈) assume the structure as drawn. “Also recorded” adds a separate entry of the source.

Legend:
[1] = test system: Staphylococcus aureus A 2000; assay: Agar dilution tests; type: cell-based; conditions: A2000, anaerobic culture, read-out: Minimum inhibitory concentration
[2] = test system: Staphylococcus aureus A 2001; assay: Agar dilution tests; type: cell-based; conditions: A2001, anaerobic culture, read-out: Minimum inhibitory concentration
[3] = test system: Diplococcus pneumoniae L54; assay: Agar dilution tests; type: cell-based; conditions: Streptococcus pneumoniae, anaerobic culture, read-out: Minimum inhibitory concentration
[4] = test system: Salmonella typhimurium R172; assay: Agar dilution tests; type: cell-based; conditions: Salmonella enterica, anaerobic culture, read-out: Minimum inhibitory concentration
Escherichia coli U20 = assay: Agar dilution tests; type: cell-based; conditions: anaerobic culture, read-out: Minimum inhibitory concentration
[5] = test system: Listeria monocytogenes A2130; assay: Agar dilution tests; type: cell-based; conditions: anaerobic culture, read-out: Minimum inhibitory concentration
[6] = test system: Listeria monocytogenes A2131; assay: Agar dilution tests; type: cell-based; conditions: anaerobic culture, read-out: Minimum inhibitory concentration
[7] = test system: Listeria monocytogenes A2132; assay: Agar dilution tests; type: cell-based; conditions: anaerobic culture, read-out: Minimum inhibitory concentration
[8] = test system: Clostridium perfringens A738; assay: microbe, parasite or virus in culture; type: cell-based; conditions: A738, read-out: Minimum inhibitory concentration
[9] = test system: Clostridium septicum A2152; assay: Agar dilution tests; type: cell-based; conditions: anaerobic culture, read-out: Minimum inhibitory concentration
[10] = test system: Streptococcus zocepidemicus A2144; assay: Agar dilution tests; type: cell-based; conditions: anaerobic culture, read-out: Minimum inhibitory concentration
R-Streptococcen A2148 = assay: Agar dilution tests; type: cell-based; conditions: read-out: Minimum inhibitory concentration
[11] = test system: Brucella suis (smooth) A2126; assay: microbe, parasite or virus in culture; type: cell-based; conditions: read-out: Minimum inhibitory concentration
[12] = test system: Pasteurella haemolytica A2136; assay: Agar dilution tests; type: cell-based; conditions: Mannheimia haemolytica, anaerobic culture, read-out: Minimum inhibitory concentration
Treponema spec. A2275 = assay: Agar dilution tests; type: cell-based; conditions: anaerobic culture, read-out: Minimum inhibitory concentration
[13] = test system: Bacillus subtilis ATCC 6633; assay: Liquid dilution tests; type: cell-based; conditions: ATCC6633, read-out: Minimum inhibitory concentration
[14] = test system: Bacillus subtilis ATCC 6051; assay: Liquid dilution tests; type: cell-based; conditions: ATCC6051, read-out: Minimum inhibitory concentration
[15] = test system: Bacillus subtilis 6346 D167; assay: Liquid dilution tests; type: cell-based; conditions: read-out: Minimum inhibitory concentration
[16] = test system: Bacillus subtilis 220 D178; assay: Liquid dilution tests; type: cell-based; conditions: read-out: Minimum inhibitory concentration
Bacillus subtilis TH 10 = assay: Liquid dilution tests; type: cell-based; conditions: TH10, read-out: Minimum inhibitory concentration
Bacillus cereus D166 = assay: Liquid dilution tests; type: cell-based; conditions: read-out: Minimum inhibitory concentration
Bacillus cereus D261 = assay: Liquid dilution tests; type: cell-based; conditions: read-out: Minimum inhibitory concentration
Bacillus cereus D220 = assay: Liquid dilution tests; type: cell-based; conditions: read-out: Minimum inhibitory concentration
Bacillus cereus B569 = assay: Liquid dilution tests; type: cell-based; conditions: read-out: Minimum inhibitory concentration
Bacillus cereus TH 1 = assay: Liquid dilution tests; type: cell-based; conditions: TH1, read-out: Minimum inhibitory concentration
[17] = test system: Bacillus thuringiensis W11; assay: Liquid dilution tests; type: cell-based; conditions: read-out: Minimum inhibitory concentration
[18] = test system: Bacillus mesenterium D169; assay: Liquid dilution tests; type: cell-based; conditions: read-out: Minimum inhibitory concentration
[19] = test system: Bacillus cereus var. mycoides; assay: microbe, parasite or virus in culture; type: cell-based; conditions: read-out: Minimum inhibitory concentration
[20] = test system: Streptococcus haemolyticus A266; assay: Liquid dilution tests; type: cell-based; conditions: A266, read-out: Minimum inhibitory concentration
[21] = test system: Streptococcus haemolyticus A2182; assay: Liquid dilution tests; type: cell-based; conditions: read-out: Minimum inhibitory concentration
[22] = test system: Mycoplasma hyorhinus A2230; assay: Liquid dilution tests; type: cell-based; conditions: A2230, read-out: Minimum inhibitory concentration
[23] = test system: Streptomyces viridochromogenes; assay: Liquid dilution tests; type: cell-based; conditions: read-out: Minimum inhibitory concentration
Solubility = type: physicochemical
[24] = growth and feed-conversion of animals being fattened; type: in vivo; conditions: low concentration in feed; chickens or pigs
From the text: Many properties of dihydromocimycin are similar to those of mocimycin.

Treponema = assay: treatment of pigs from a farm with pigs scour, Treponema-positive (Example VII); type: in vivo
Description: Pigs, from a farm where problems with pigs scour had existed for some time, were treated under the supervision of the local veterinary surgeon and the inspector of the Health Service Station. The pigs were divided into groups and treated for 4 days in the following manner.
Group 1: 66 pigs were treated with feed containing 100 ppm of tylosin;
Group 2: 34 pigs were treated with feed containing 25 ppm of dihydromocimycin;
Group 3: 40 pigs were treated with feed containing 50 ppm of dihydromocimycin; and
Group 4: 40 pigs were treated with feed containing 100 ppm of dihydromocimycin.
Before the treatment, all animals lost thin or very thin faeces. Samples thereof were investigated and found to be Treponema-positive, and Salmonella-negative. Sometimes worm eggs were found.

[25] = test system: microorganism causing Treponema dysentery; assay: experiments against the microorganism causing Treponema dysentery
[26] = test system: Clostridium welchii A 738; assay: microbe, parasite or virus in culture; type: cell-based; conditions: A738, 18 h, read-out: Minimum inhibitory concentration
Treponema hyodysenteriae = assay: early experiments against Treponema dysentery; type: in vivo; conditions: swine
Description: In an early stage of investigation, it was presumed that mocimycin, having a similar anti-microbial spectrum to that of tylosin (Merck Index, 8th Ed. page 1089), might be effective against Treponema hyodysenteriae causing Treponema dysentery of Vibrio Doyle, one of the most common swine diseases. […] For that reason, no further investigations were carried out.

Structure (SMILES): CC=CC=CC1OC(O)(C(CC)C(=O)NCC=CC=C(C)C(OC)C(C)C2OC(C=CC=CC=C(C)C(=O)C3=C(O)CCNC3=O)C(O)C2O)C(O)C(O)C1(C)C (centres unmarked) [dihydromocimycin]
- MIC [1]: > 100 µg/mL
- MIC [2]: > 100 µg/mL
- MIC [3]: < 0.75 µg/mL
- MIC [4]: > 100 µg/mL
- MIC (Escherichia coli U20): 100 µg/mL (≈ 125 µM)
- MIC [5]: 1.5 µg/mL (≈ 1.88 µM)
- MIC [6]: 6 µg/mL (≈ 7.51 µM)
- MIC [7]: 6 µg/mL (≈ 7.51 µM)
- MIC [8]: > 100 µg/mL
- MIC [9]: 10 µg/mL (≈ 12.5 µM)
- MIC [10]: 6 µg/mL (≈ 7.51 µM)
- MIC (R-Streptococcen A2148): 3 µg/mL (≈ 3.75 µM)
- MIC [11]: 0.4 µg/mL (≈ 0.501 µM)
- MIC [12]: 1.5 µg/mL (≈ 1.88 µM)
- MIC (Treponema spec. A2275): 10 µg/mL (≈ 12.5 µM)
- MIC [13]: 50 µg/mL (≈ 62.6 µM)
- MIC [14]: 50 µg/mL (≈ 62.6 µM)
- MIC [15]: 0.9 µg/mL (≈ 1.13 µM)
- MIC [16]: 75 µg/mL (≈ 93.9 µM)
- MIC (Bacillus subtilis TH 10): 50 µg/mL (≈ 62.6 µM)
- MIC (Bacillus cereus D166): 0.6 µg/mL (≈ 0.751 µM)
- MIC (Bacillus cereus D261): 0.6 µg/mL (≈ 0.751 µM)
- MIC (Bacillus cereus D220): 0.9 µg/mL (≈ 1.13 µM)
- MIC (Bacillus cereus B569): 1.2 µg/mL (≈ 1.5 µM)
- MIC (Bacillus cereus TH 1): 1.2 µg/mL (≈ 1.5 µM)
- MIC [17]: 0.9 µg/mL (≈ 1.13 µM)
- MIC [18]: 50 µg/mL (≈ 62.6 µM)
- MIC [19]: 0.45 µg/mL (≈ 0.563 µM)
- MIC [20]: 0.45 µg/mL (≈ 0.563 µM)
- MIC [21]: 0.12 µg/mL (≈ 0.15 µM)
- MIC [22]: 0.3 µg/mL (≈ 0.375 µM)
- MIC [23]: 0.9 µg/mL (≈ 1.13 µM)
- solubility (Solubility; carbon tetrachloride and benzene (dihydromocimycin)): moderate
- solubility (Solubility; chloroform, methyl isobutyl ketone, ethyl acetate, butyl acetate, acetone, dioxan, methanol, ethanol, tetrahydrofuran, weakly alkaline aqueous solutions): good
- solubility (Solubility; diethyl ether, water, weakly acid aqueous solutions, cyclohexane and petroleum ether): insoluble
- growth and feed-conversion [24]: does not show any improvement of the growth or feed-conversion; also recorded: does not show the aforesaid properties
- liveliness of treated animals (Treponema; 25-100 ppm in feed): much more lively than before the treatment
- curing of Treponema dysentery, compared with tylosin (Treponema; 25 ppm dihydromocimycin vs 100 ppm tylosin): better than a dosage of 100 ppm of tylosin
- time to cure (Treponema; dihydromocimycin 25 ppm in feed (group 2)): cured in periods lying between those of groups 1 and 4
- time to cure (Treponema; dihydromocimycin 50 ppm in feed (group 3)): cured in periods lying between those of groups 1 and 4
- faeces (Treponema; dihydromocimycin 100 ppm in feed, one day after the start of treatment): normal
- aversion to feed (Treponema; feed containing dihydromocimycin): not averse to feed containing dihydromocimycin
- treatment of Treponema dysentery compared with tylosin and mocimycin [25]: superior to tylosin (and also to mocimycin)
- activity against tylosin-resistant strains ([25]; tylosin-resistant strains): active against tylosin-resistant strains

Structure (SMILES): CC=CC=CC1OC(O)(C(CC)C(=O)NCC=CC=C(C)C(OC)C(C)C2OC(C=CC=CC=C(C)C(=O)c3c(O)cc[nH]c3=O)C(O)C2O)C(O)C(O)C1(C)C (centres unmarked) [mocimycin]
- MIC [26]: 10 µg/mL (≈ 12.5 µM)
- MIC [1]: > 100 µg/mL
- MIC [2]: > 100 µg/mL
- MIC [3]: 1.5 µg/mL (≈ 1.88 µM)
- MIC [4]: > 100 µg/mL
- MIC (Escherichia coli U20): > 100 µg/mL
- MIC [5]: 6 µg/mL (≈ 7.53 µM)
- MIC [6]: 6 µg/mL (≈ 7.53 µM)
- MIC [7]: 6 µg/mL (≈ 7.53 µM)
- MIC [8]: > 100 µg/mL
- MIC [9]: 10 µg/mL (≈ 12.5 µM)
- MIC [10]: 6 µg/mL (≈ 7.53 µM)
- MIC (R-Streptococcen A2148): 6 µg/mL (≈ 7.53 µM)
- MIC [11]: 0.75 µg/mL (≈ 0.941 µM)
- MIC [12]: 3 µg/mL (≈ 3.76 µM)
- MIC (Treponema spec. A2275): 30 µg/mL (≈ 37.6 µM)
- MIC [13]: 100 µg/mL (≈ 125 µM)
- MIC [14]: 100 µg/mL (≈ 125 µM)
- MIC [15]: 1.2 µg/mL (≈ 1.51 µM)
- MIC [16]: 75 µg/mL (≈ 94.1 µM)
- MIC (Bacillus subtilis TH 10): 100 µg/mL (≈ 125 µM)
- MIC (Bacillus cereus D166): 0.6 µg/mL (≈ 0.753 µM)
- MIC (Bacillus cereus D261): 0.9 µg/mL (≈ 1.13 µM)
- MIC (Bacillus cereus D220): 1.2 µg/mL (≈ 1.51 µM)
- MIC (Bacillus cereus B569): 2.5 µg/mL (≈ 3.14 µM)
- MIC (Bacillus cereus TH 1): 1.8 µg/mL (≈ 2.26 µM)
- MIC [17]: 1.2 µg/mL (≈ 1.51 µM)
- MIC [18]: 100 µg/mL (≈ 125 µM)
- MIC [19]: 1.2 µg/mL (≈ 1.51 µM)
- MIC [20]: 0.45 µg/mL (≈ 0.565 µM)
- MIC [21]: 0.25 µg/mL (≈ 0.314 µM)
- MIC [22]: 1 µg/mL (≈ 1.25 µM)
- MIC [23]: 2.5 µg/mL (≈ 3.14 µM)
- solubility (Solubility; carbon tetrachloride and benzene (mocimycin)): poor
- solubility (Solubility; chloroform, methyl isobutyl ketone, butyl acetate, ethyl acetate, acetone, methanol and alkaline solutions): good
- solubility (Solubility; diethyl ether, petroleum ether, water and acid solutions): insoluble
- solubility (Solubility; pH 9): poorly soluble
- growth and feed-conversion [24]: improves the growth and the feed-conversion markedly; also recorded: advantageous growth-promoting properties
- activity against Treponema dysentery compared with tylosin (Treponema hyodysenteriae): active against this disease, but not more so than tylosin
